From patent US7563946B2, “Plant development regulating gene and its uses” (CropDesign, N.V., priority 2000, dated 2009)

Key:
DR5::GUS [1] = assay: Auxin sensitivity test, DR5::GUS expression in wildtype seedlings; assay type: in vivo, Arabidopsis thaliana; conditions: 3 days on medium
Excerpt: (§1) However, new methods to detect auxin responses have emerged, for example with synthetic auxin responsive promoter elements binding ARF transcription factors, such as DR5::GUS (Ulmasov et al., 1997). Since there is also a resemblance of the hbt early embryo phenotype to axr6, bdl and mp mutants (Hardtke and Berleth, 1998; Hamann et al., 1999; Hobbie et al 2000), we used the DR5::GUS construct to re-investigated auxin responses in hbt seedlings. In wildtype seedling roots there is a maximum of DR5::GUS staining in the upper part of the columella (FIG. 17A). This peak is absent in hbt seedlings (FIG. 17F) where no GUS staining is visible. Since the specification of the columella cells is defective in hbt seedlings, we wanted to know whether hbt mutant cells are capable of sensing auxin. Therefore, hbt seedlings were incubated for 3 days on media containing different concentrations of the synthetic auxin 2,4 D, and DR5::GUS expression was analysed. […] It is therefore possible that the HBT gene has a role in the perception of auxin levels.
(§2) DR5::GUS expression in wt roots (A-E) and in hbt seedlings […]. Three days post germination seedlings were transferred to 0.5 GM plates (A and F) and 0.5 GM plates containing 10^−9 M 2,4 D (B and G), 10^−8 M 2,4 D (C and H), 10^−7 M 2,4 D (D and I) and 10^−6 M 2,4 D (E and J) and incubated for another three days. Mutants are shown at 10× magnification of the wildtype seedling.
(§3) DR5::GUS constructs was used (Ulmasov et al., 1997b). Seedlings were germinated on 0.5 GM medium as described, 3 dpg transferred to fresh 0.5 GM plates containing different concentrations of 2,4 D or IAA (5.10^−9 M until 5.10^−6 M) (see FIG. 17) and incubated for an additional 3 days. After that the b-glucuronidase was visualized as described (Willemsen et al., 1998).

DR5::GUS [2] = assay: Auxin sensitivity test, DR5::GUS expression in hbt mutant seedlings; assay type: in vivo, Arabidopsis thaliana
Excerpt: as §1, §2, §3

hbt seedlings = hbt seedlings treated with ethylene

SMILES | DR5::GUS expression in wildtype hypocotyls (DR5::GUS [1]; 5.10^-6 M) | DR5::GUS expression in wildtype root (DR5::GUS [1]; 5.10^-7 M) | DR5::GUS expression in wildtype roots (DR5::GUS [1]; 5.10^-9 M until 5.10^-8 M) | DR5::GUS expression in hbt hypocotyls (DR5::GUS [2]; 5.10^-6 M, 3 days on medium) | DR5::GUS expression in hbt root pole (DR5::GUS [2]; 5.10^-7 M, 3 days on medium) | DR5::GUS staining in hbt seedlings (DR5::GUS [2]; 5.10^-9 M until 5.10^-8 M, 3 days on medium) | DR5::GUS expression in hbt embryos compared to wildtype (DR5::GUS [2]; embryos, after induction) | Auxin sensitivity of hbt seedlings (synthetic auxin response element) (DR5::GUS [2]; hbt seedlings versus wildtype) | Re-specification of epidermal cells on the hypocotyl (hbt seedlings)
O=C(O)COc1ccc(Cl)cc1Cl [2,4 D] | never observed any ectopic DR5 expression | quite intense and throughout the entire root | ectopic expression of the DR5::GUS promoter in the meristem of wildtype roots | strong DR5 expression | a DR5 peak in the root pole of hbt | no staining observed | no differences compared to wildtype | altered auxin sensitivity | 
C=C [ethylene] |  |  |  |  |  |  |  |  | a large number of ectopic outgrowths was induced
